From patent US20080312244A1, “Squaric Acid Derivatives as Protein Kinase Inhibitors” (priority 2005, published 2008)

Assays:
CHK1 kinase = target: T1, CHK1 kinase (Homo sapiens, UniProt O14757); experiment: Measurement of the CHK1 kinase activity (flashplate / filter binding method); assay type: biochemical; conditions: class symbols defined in table footnotes
T1 construct: glutathione S-transferase (GST); made in house; host or cells: Sf21 (S. frugiperda) insect cells, baculovirus expression vector
T1 sequence (O14757 1-476): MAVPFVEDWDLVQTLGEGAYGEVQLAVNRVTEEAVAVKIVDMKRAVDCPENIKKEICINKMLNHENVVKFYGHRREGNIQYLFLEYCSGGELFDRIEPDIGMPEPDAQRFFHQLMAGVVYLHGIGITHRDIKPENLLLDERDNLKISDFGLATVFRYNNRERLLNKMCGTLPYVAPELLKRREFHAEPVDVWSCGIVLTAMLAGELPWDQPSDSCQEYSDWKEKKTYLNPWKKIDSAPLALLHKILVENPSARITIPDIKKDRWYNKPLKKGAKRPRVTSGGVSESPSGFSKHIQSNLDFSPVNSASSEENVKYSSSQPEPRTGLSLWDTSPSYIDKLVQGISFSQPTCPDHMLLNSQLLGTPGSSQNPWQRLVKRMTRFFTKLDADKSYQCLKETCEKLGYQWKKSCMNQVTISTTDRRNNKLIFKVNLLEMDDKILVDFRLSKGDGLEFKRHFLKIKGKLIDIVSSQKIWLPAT
Protocol: CHK1 kinase is expressed for the purposes of protein production in insect cells (Sf21; S. frugiperda) and subsequent purification by affinity chromatography as fusion protein with glutathione S-transferase in a baculovirus expression vector. The cultivation, infection and digestion of the cells as well as the purification of the fusion protein by column chromatography are carried out in accordance with manufacturer-oriented generic working instructions.
The kinase activity is measured using various available measurement systems. In the scintillation proximity method (Sorg et al., J. of. Biomolecular Screening, 2002, 7, 11-19), the flashplate method or the filter binding test, the radioactive phosphorylation of a protein or peptide as substrate is measured using radioactively labelled ATP (γ^32P-ATP, (γ^33P-ATP). In the case of the presence of an inhibitory compound, a reduced radioactive signal, or none at all, can be detected. Furthermore, homogeneous time-resolved fluorescence resonance energy transfer (HTR-FRET) and fluorescence polarisation (FP) technologies are useful as assay methods (Sills et al., J. of Biomolecular Screening, 2002, 191-214).
The test plates used are 384-well streptavidin-coated Flashplates Plus® from Perkin Elmer (Cat. No. SMP410A001 PK). The assay plate is equilibrated with 75 μl of assay buffer per well 30 min before commencement of the experiment. The buffer is sucked out before commencement of the experiment, and the components of the kinase reaction described below are pipetted onto the plate.
CHK1 kinase, a biotinylated substrate peptide (for example CHKtide: […]), is incubated with radioactively labelled ATP in the presence and absence of test substances at […] and a total volume of 50 μl. The reaction is terminated using 25 μl of a 0.2 M EDTA solution. After incubation for 30 min at room temperature, the supernatants are filtered off with suction, and the wells are washed three times with 100 μl of 0.9% NaCl solution each time. The measurement of the bound radioactivity is carried out by means of a scintillation measuring instrument (Topcount NXT, Perkin-Elmer).
The full value used is the inhibitor-free kinase reaction. This should be approximately in the range 3000-4000 cpm. The pharmacological zero value used is staurosporin in a final concentration of 0.1 μM. The inhibitory values (IC50) are determined using the program RS1_MTS ( ).
Kinase reaction conditions per well:
0.15 μg of CHKtide ([…])
50 μl total volume (1-fold assay buffer reaction conditions)
5-20 mU of CHK1 kinase (diluted in 20 mM MOPS pH7.5, 1 mM EDTA, 0.1% β-mercaptoethanol, 0.01% Brij-35, 5% glycerol, 1 mg/ml of BSA) are incubated for 30 min at room temperature in the presence of 30-200 μM CHKtide in 25.5 μl in 1-fold reaction buffer (8 mM MOPS pH7, 0.2 mM EDTA, 10 mM magnesium acetate, 0.02 mM γ^33P-ATP [500-1000 cpm/pmol]). The reaction is stopped using 5 μl of 0.5 M ortho-phosphoric acid and filtered through P81 filter plates. After the filter plates have been washed a number of times, the bound radioactivity is determined in a scintillation counter.

For `O=c1c(NCc2cccc(O)c2)c(Nc2ccc(O)c(-n3ccnc3)c2)c1=O` [Compound A74, 3-(3-Hydroxybenzylamino)-4-(3-imidazol-1-yl-4-hydroxyphenylamino)cyclobut-3-ene-1,2-dione], the IC50 (CHK1 kinase) was > 1000 nM.

With `NC(=O)c1cccc(CNc2c(Nc3ccc(O)c(-c4ccccn4)c3)c(=O)c2=O)c1` [Compound A66, 3-(3-Aminocarbonylbenzylamino)-4-(4-hydroxy-3-pyridin-2-ylphenylamino)cyclobut-3-ene-1,2-dione] the IC50 (CHK1 kinase) was < 1000 nM.

With `C[C@@H](Nc1c(Nc2cccc(-c3ccccn3)c2)c(=O)c1=O)c1cccc(O)c1` [Compound A6, 3-(3-Pyridin-2-ylphenylamino)-4-[(R)-1-(3-hydroxyphenyl)ethylamino]cyclobut-3-ene-1,2-dione] the IC50 (CHK1 kinase) was > 1000 nM.

With `O=c1c(NCc2ccc(F)c(O)c2)c(Nc2ccc(O)c(-c3ccccn3)c2)c1=O` [Compound A65, 3-(4-Fluoro-3-hydroxybenzylamino)-4-(4-hydroxy-3-pyridin-2-ylphenylamino)cyclobut-3-ene-1,2-dione] the IC50 (CHK1 kinase) was < 1000 nM.

For `COc1cccc([C@@H](C)Nc2c(Nc3ccc(O)c(-c4ccccn4)c3)c(=O)c2=O)c1` [Compound A4, 3-(4-Hydroxy-3-pyridin-2-ylphenylamino)-4-[(R)-1-(3-methoxyphenyl)ethylamino]cyclobut-3-ene-1,2-dione], the IC50 (CHK1 kinase) was > 1000 nM.

For `CNS(=O)(=O)c1cccc(CNc2c(Nc3ccc(O)c(-c4ccccn4)c3)c(=O)c2=O)c1` [Compound A67, 3-(3-Methylaminosulfonylbenzylamino)-4-(4-hydroxy-3-pyridin-2-ylphenylamino)cyclobut-3-ene-1,2-dione], the IC50 (CHK1 kinase) was < 1000 nM.

In the case of `COc1cccc([C@H](C)Nc2c(Nc3ccc(O)c(-c4ccccn4)c3)c(=O)c2=O)c1` [Compound A59, 3-(4-Hydroxy-3-pyridin-2-ylphenylamino)-4-[(S)-1-(3-methoxyphenyl)ethylamino]cyclobut-3-ene-1,2-dione], the IC50 (CHK1 kinase) is reported as > 1000 nM.

With `C[C@@H](Nc1c(Nc2ccc(O)c(-c3ccccn3)c2)c(=O)c1=O)c1ccccc1` [Compound A3, 3-(4-Hydroxy-3-pyridin-2-ylphenylamino)-4-[(R)-1-phenylethylamino]cyclobut-3-ene-1,2-dione] the IC50 (CHK1 kinase) was > 1000 nM.

With `O=c1c(NCc2cccc(O)c2)c(Nc2ccc(O)c(-c3ccccc3)c2)c1=O` [Compound A2, 3-(3-Hydroxybenzylamino)-4-(4-hydroxy-3-phenylphenylamino)cyclobut-3-ene-1,2-dione] the IC50 (CHK1 kinase) was > 1000 nM.

For `O=c1c(NCc2cccc(O)c2)c(Nc2ccc(O)c(-c3ccncc3)c2)c1=O` [Compound A23, 3-(3-Hydroxybenzylamino)-4-(4-hydroxy-3-pyridin-4-ylphenylamino)cyclobut-3-ene-1,2-dione], the IC50 (CHK1 kinase) was < 1000 nM.

In the case of `COc1ccc(Nc2c(NCc3cccc(O)c3)c(=O)c2=O)cc1-n1ccnc1` [Compound A72, 3-(3-Hydroxybenzylamino)-4-(3-imidazol-1-yl-4-methoxyphenylamino)cyclobut-3-ene-1,2-dione], the IC50 (CHK1 kinase) is reported as > 1000 nM.

In the case of `COc1cc(CNc2c(Nc3ccc(O)c(-c4ccccn4)c3)c(=O)c2=O)ccc1F` [Compound A62, 3-(4-Fluoro-3-methoxybenzylamino)-4-(4-hydroxy-3-pyridin-2-ylphenylamino)cyclobut-3-ene-1,2-dione], the IC50 (CHK1 kinase) is reported as > 1000 nM.

With `COc1cccc([C@@H](C)Nc2c(Nc3ccc(O)c(-n4cccn4)c3)c(=O)c2=O)c1` [Compound A76, 3-(4-Hydroxy-3-pyrazol-1-ylphenylamino)-4-[(R)-1-(3-methoxyphenyl)ethylamino]cyclobut-3-ene-1,2-dione] the IC50 (CHK1 kinase) was < 1000 nM.

In the case of `O=c1c(NCc2cc(O)cc(O)c2)c(Nc2ccc(O)c(-c3ccccn3)c2)c1=O` [Compound A63, 3-(3,5-Dihydroxybenzylamino)-4-(4-hydroxy-3-pyridin-2-ylphenylamino)cyclobut-3-ene-1,2-dione], the IC50 (CHK1 kinase) is reported as < 100 nM.

With `C[C@H](Nc1c(Nc2ccc(O)c(-c3ccccn3)c2)c(=O)c1=O)c1cccc(O)c1` [Compound A10, 3-(4-Hydroxy-3-pyridin-2-ylphenylamino)-4-[(S)-1-(3-hydroxyphenyl)ethylamino]cyclobut-3-ene-1,2-dione] the IC50 (CHK1 kinase) was > 1000 nM.

For `O=c1c(NCCc2cccc(O)c2)c(Nc2ccc(O)c(-c3ccccn3)c2)c1=O` [Compound A60, 3-[2-(3-Hydroxyphenyl)ethylamino]-4-(4-hydroxy-3-pyridin-2-ylphenylamino)cyclobut-3-ene-1,2-dione], the IC50 (CHK1 kinase) was < 1000 nM.

With `CC(=O)Nc1cccc(CNc2c(Nc3ccc(O)c(-c4ccccn4)c3)c(=O)c2=O)c1` [Compound A64, 3-(3-Acetamidobenzylamino)-4-(4-hydroxy-3-pyridin-2-ylphenylamino)cyclobut-3-ene-1,2-dione] the IC50 (CHK1 kinase) was < 1000 nM.

With `O=c1c(NCc2cccc(O)c2)c(Nc2ccc(O)c(-n3cccn3)c2)c1=O` [Compound A75, 3-(3-Hydroxybenzylamino)-4-(4-hydroxy-3-pyrazol-1-ylphenylamino)cyclobut-3-ene-1,2-dione] the IC50 (CHK1 kinase) was < 1000 nM.

For `NS(=O)(=O)c1cccc(CNc2c(Nc3ccc(O)c(-c4ccccn4)c3)c(=O)c2=O)c1` [Compound A12, 3-(3-Aminosulfonylbenzylamino)-4-(4-hydroxy-3-pyridin-2-ylphenylamino)cyclobut-3-ene-1,2-dione], the IC50 (CHK1 kinase) was < 1000 nM.

In the case of `O=c1c(NCc2cccc(O)c2)c(Nc2ccc(O)c(-n3cccc3)c2)c1=O` [Compound A73, 3-(3-Hydroxybenzylamino)-4-(4-hydroxy-3-pyrrol-1-ylphenylamino)cyclobut-3-ene-1,2-dione], the IC50 (CHK1 kinase) is reported as > 1000 nM.

For `CN(Cc1cccc(O)c1)c1c(Nc2ccc(O)c(-c3ccccn3)c2)c(=O)c1=O` [Compound A68, 3-[(3-Hydroxybenzyl)methylamino]-4-(4-hydroxy-3-pyridin-2-ylphenylamino)cyclobut-3-ene-1,2-dione], the IC50 (CHK1 kinase) was < 1000 nM.

In the case of `C[C@@H](Nc1c(Nc2ccc(O)c(-c3ccccn3)c2)c(=O)c1=O)c1cccc(O)c1` [Compound A5, 3-(4-Hydroxy-3-pyridin-2-ylphenylamino)-4-[(R)-1-(3-hydroxyphenyl)ethylamino]cyclobut-3-ene-1,2-dione], the IC50 (CHK1 kinase) is reported as < 100 nM.

For `O=c1c(NCc2cccc(O)c2)c(Nc2ccc(O)c(-c3ccccn3)c2)c1=O` [Compound A1, 3-(3-hydroxybenzylamino)-4-(4-hydroxy-3-pyridin-2-ylphenylamino)cyclobut-3-ene-1,2-dione], the IC50 (CHK1 kinase) was < 100 nM and the melting point was 271 to 272 °C.

For `O=c1c(NCc2ccc(O)c(O)c2)c(Nc2ccc(O)c(-c3ccccn3)c2)c1=O` [Compound A61, 3-(3,4-Dihydroxybenzylamino)-4-(4-hydroxy-3-pyridin-2-ylphenylamino)cyclobut-3-ene-1,2-dione], the IC50 (CHK1 kinase) was < 100 nM.
